The source of these data is US20250312365A1, “METHODS FOR INHIBITION OF SQUAMOUS CARCINOMA CELLS USING CERAMIDE MODULATORS” (The Trustees of Indiana University, priority 2024, published 2025).

Assay [1] deals with healthy epithelial OBA9 cells. Briefly: Untargeted metabolomic pathway analysis (LC/MS) in healthy OBA9 cells. The format is cell-based, human. The conditions noted are these: 1 μg/ml for 6 h. The source says:
Based on this analysis, at least 5 different cell survival metabolomic pathways, underlined in red were diminished in OSCC (OECM1 and SCC9), but not in healthy epithelial OBA9 cells in response to PGDHC. The 5 pathways were folate metabolism, arginine and proline metabolism, glycine and serine metabolism, de novo triacylglycerol biosynthesis, and mitrochondrial electron transport chain.
The Warburg effect is a metabolic phenomenon observed in many cancer cells, where the cells preferentially use glycolysis metabolism to produce energy instead of oxidative phosphorylation. The Warburg effect is a hallmark of rapid cancer cell growth. Therefore, we evaluated whether PGDHC altered Warburg effect in OSCM1 and SCC9 oral squamous cell carcinoma cells (FIG. 17A), but not healthy epithelial OBA9 cells (FIG. 17B), in vitro. Cells were stimulated with PGDHC (1 μg/ml) for 6 h and the untargeted metabolomic analysis was performed using LC/MS mass-spectrometry. Polar and lipid metabolites were analyzed with HILIC/MS and LC/MS, respectively. […]
Based upon the impact of PGDHC on the Warburg effect in OSCC cells, we further analyzed the levels of cancer-survival metabolites adenosine triphosphate (ATP) and glucose in the OECM1, SCC9, and OBA9 cells described in Example 11. […]

Assay [2] deals with ceramide and dihydroceramide in OECM1 cells. Briefly: Intracellular ceramide and dihydroceramide by mass-spectrometry in OECM1 cells. It is filed as cell-based, human. The source says: Cellular levels of ceramides and dihydroceramides, and cellular accumulation or increase thereof, can be determined according to known methods, such as mass spectrometry. For example, Scherer et al., J Lipid Res. 2010 July; 51(7): 2001-2011 and Smeden et al., J Lipid Res. 2011 June; 52(6):1211-1221 describe LC/MS/MS methods for determining ceramide levels in cells.
To assess intracellular ceramide levels, the concentration of ceramide and dihydroceramide in OECM1 cells exposed to PGDHC was measured using mass-spectrometry. […] No effect of 0.1 μg/ml of PGDHC on ceramide and dh-ceramide concentrations in OECM1 cells was observed. (FIG. 10C)

Another assay concerns ADAM17. The experiment in a line: ADAM17 mRNA expression in OECM1 cells. The format is cell-based, human. The conditions noted are these: in combination with S1P. As to the method: (§1) NF-kB, MMP-2, ADAM-17, and IL6 are implicated in the degradation of the expression of genes involved in the cell basement membrane and extracellular matrix of oral squamous cell carcinoma. Accordingly, the expression of NFkB, MMP2, ADAM17, and IL6 in OECM1 cells following exposure to 0.1 μg/ml PGDHC and 1 μg/ml PGDHC was determined.
(§2) Sphingosine-1-phosphate (S1P) sphingolipid plays an essential role in the survival, migration, and degradation of the basement membrane and extracellular matrix of oral squamous cell carcinoma (Yura et al., Cancers (Basel). 2020 August; 12(8): 2062). To determine whether PGDHC can inhibit such properties, the combined effects of PGDHC and S1P on OECM1 gene expression was tested in vitro.

Assay [3] relates to healthy human gingival epithelial control cells (OBA9). Briefly: Cell viability/proliferation assay (WST-1) in healthy OBA9 cells. The format is cell-based. The conditions noted are these: 0.1 μg/ml and 1 μg/ml; WST-1. The source says: (§3) In specific examples, colorimetric assays can be used to assess cellular viability and proliferation of cell cultures, such as MTT, WST-1, and resazurin assays. See, e.g., Präbst et al., Methods Mol Biol. 2017:1601:1-17.
(§4) Various cell lines were exposed to PGDHC, including human gingival squamous carcinoma cells (OECM1), tongue squamous carcinoma cells (SCC4, SCC9), and healthy human gingival epithelial control cells (OBA9) in vitro.
(§5) LCL521 is a dose-dependent acid ceramidase inhibitor. Comparison of the concentration-dependent effects of an acid ceramidase inhibitor, LCL521 (MedChemExpress®), and the bacterial-isolated a15:0-15:0PE phospholipid on the viability of healthy human epithelial, OBA9, and oral squamous cancer cell lines, OECM1 and SCC9, in vitro was evaluated. […] (FIG. 15A). […] (FIG. 15B).
A general note: Tetrazolium dyes change colour on reduction, which living cells bring about.

A further assay concerns N-cadherin. Briefly: Western blot of N-cadherin in OECM1 cells. The format is cell-based, human. Conditions: 24 h of treatment. As to the method:
To determine the effect of PGDHC on cell markers involved in metastasis, the protein levels of p-STAT3, EMT markers, E-cadherin, N-cadherin, and Vimentin in OECM1 cells following in vitro exposure to PGDHC were determined by Western blot assay.

The test system of assay [4] is human gingival squamous carcinoma cells (OECM1). Briefly: Cell viability/proliferation assay (WST-1) in OECM1 cells. It is filed as cell-based. The conditions noted are these: each tested concentration (0.1 μg/ml and 1 μg/ml); WST-1.
From the text: as §3, §4
To elucidate the effects of C16:0 and dh-C16:0 on oral squamous cell carcinoma, the ability of exogenous C16:0 and dh-C16:0 to modulate proliferation and ceramidase expression in OECM1 cells was determined. […] In contrast, no effect of C16:0 on ASAH1 and ACER2 mRNA expressions.
as §5

In a further assay the test system is MMP2. The experiment in a line: MMP2 mRNA expression in SCC4 cells. Conditions: relative to control cells. The format is cell-based, human. As to the method:
(§6) Expression of these genes was also assessed in human tongue squamous cell carcinoma SCC4 cells.

The subject of assay [5] is tongue squamous carcinoma cells (SCC9). Briefly: Cell viability/proliferation assay (WST-1) in SCC9 cells. The conditions noted are these: 0.1 μg/ml and 1 μg/ml; WST-1. It is filed as cell-based, human.
From the text: as §3, §4, §5

Assay [6] relates to NFkB. The experiment in a line: NFkB mRNA expression in OECM1 cells. The format is cell-based, human. As for the experimental part: as §1, §2
The test system of a further assay is OECM1 cells. Briefly: Transwell (insert) transmigration assay, OECM1. The format is cell-based, human. Conditions: 1 μg/ml, compared to sham control. As to the method:
A scratch wound healing assay was performed according to known methods to assess the effects of PGDHC on the migration of human oral squamous cell carcinoma cells. […] The scratch wound healing assay was validated with a transwell migration assay.

Assay [7] deals with NFkB. Briefly: NFkB mRNA expression in SCC4 cells. It is filed as cell-based, human. Conditions: relative to control cells. As for the experimental part:
as §6

“Also recorded” adds a separate entry of the source.

Regarding phosphoglycerol dihydroceramide [PGDHC], in [1], the “Warburg effect in healthy OBA9 cells” value is “no effect”. In assay [2] (0.1 μg/ml), the “ceramide and dh-ceramide concentrations in OECM1 cells” value is recorded as “No effect”. For the same substance, in assay [2] (1 μg/ml, OECM1 cells), the “intracellular concentration of ceramide C20:0, C26:0 and C26:1” value is on record as “significantly elevated”; the “intracellular concentration of dihydroceramide dhC14:0, dhC16:0, dhC18:0, dhC20:0, dhC20:1, dhC22:1, dhC22:0, dhC24:1, dhC24:0, dhC26:1” value is “significantly elevated”. For the same substance, in [2] (1 μg/ml, OECM1 cells, compared to ceramides), the “total intracellular concentration of dihydroceramides” value was “significantly elevated; also recorded: led to the accumulation”. For the same substance, the “accumulation of C16:0 dihydroceramide (dh-C16:0)” value in [2] (OECM1 cells) was “promotes the accumulation”. In addition, the “ADAM17 mRNA levels in OECM1 cells exposed to S1P” value with ADAM17 is recorded as “a significant effect was not observed”. The “proliferation of healthy control OBA9 cells” value in assay [3] is “did not have a detectable effect; also recorded: did not have an observable effect”. For the same substance, the “protein level of N-cadherin in OECM1 cells” value with N-cadherin was “little to no detectable effect”. In addition, the “viability of OECM1 cells” value in [4] is on record as “significantly inhibited”. In the assay with MMP2, the “MMP2 mRNA in SCC4 cells” value is given as “significantly diminished”. In addition, in assay [5], the “proliferation of SCC9 cells” value was “did not have an observable effect”. The “expression of NFkB mRNA in OECM1 cells” value in the assay with NFkB [6] (1 μg/ml) is recorded as “significantly inhibited”. Also, the “expression of NFkB mRNA in OECM1 cells exposed to S1P” value in the assay on NFkB [6] (in combination with S1P) is “significantly inhibited”. The “number of transmigrated OECM1 cells” value in the assay on OECM1 cells is on record as “significantly reduced”. The “NFkB mRNA in SCC4 cells” value in the assay on NFkB [7] is “significantly diminished”.
